Measurements published in publication PMC12358834, “Structural basis for anaerobic alkane activation by a multisubunit glycyl radical enzyme” (Proceedings of the National Academy of Sciences of the …, 2025).

What was measured:
[1] = biological target: T1, MASS; (1-methylalkyl)succinate synthase; MASSα2βγ2δ complex (Azoarcus sp. HxN1, UniProt A9J4K4); experiment: cryo-EM structure of the complex, […] Å; type: binding; conditions: active site of MASSα (αβγδ side); anaerobic; no alkane present; DTT modelled in hydrocarbon site; no glycyl radical activation described
T1 construct: gene masD; full-length subunits co-expressed in E. coli NiCo21(DE3); N-terminal His tag on MASSα; asymmetric alpha2-beta-gamma2-delta complex; [4Fe-4S] in beta and gamma, single Fe in delta; with (1-methylalkyl)succinate synthase beta subunit; (1-methylalkyl)succinate synthase gamma subunit; (1-methylalkyl)succinate synthase delta subunit (rubredoxin-like)

[2] = biological target: (1-methylalkyl)succinate synthase catalytic α-subunit (MASSα), protein product of masD (Azoarcus sp. strain HxN1); experiment: cryo-EM structure; single-particle cryo-EM of the co-expressed, purified MASS complex (SEC fractions with dimeric MASSα), grids prepared anaerobically, 0.8 mg/mL, fumarate and DTT bound; 2.8 Å map (a first data set gave 7 Å)

T1 sequence (A9J4K4 1-839): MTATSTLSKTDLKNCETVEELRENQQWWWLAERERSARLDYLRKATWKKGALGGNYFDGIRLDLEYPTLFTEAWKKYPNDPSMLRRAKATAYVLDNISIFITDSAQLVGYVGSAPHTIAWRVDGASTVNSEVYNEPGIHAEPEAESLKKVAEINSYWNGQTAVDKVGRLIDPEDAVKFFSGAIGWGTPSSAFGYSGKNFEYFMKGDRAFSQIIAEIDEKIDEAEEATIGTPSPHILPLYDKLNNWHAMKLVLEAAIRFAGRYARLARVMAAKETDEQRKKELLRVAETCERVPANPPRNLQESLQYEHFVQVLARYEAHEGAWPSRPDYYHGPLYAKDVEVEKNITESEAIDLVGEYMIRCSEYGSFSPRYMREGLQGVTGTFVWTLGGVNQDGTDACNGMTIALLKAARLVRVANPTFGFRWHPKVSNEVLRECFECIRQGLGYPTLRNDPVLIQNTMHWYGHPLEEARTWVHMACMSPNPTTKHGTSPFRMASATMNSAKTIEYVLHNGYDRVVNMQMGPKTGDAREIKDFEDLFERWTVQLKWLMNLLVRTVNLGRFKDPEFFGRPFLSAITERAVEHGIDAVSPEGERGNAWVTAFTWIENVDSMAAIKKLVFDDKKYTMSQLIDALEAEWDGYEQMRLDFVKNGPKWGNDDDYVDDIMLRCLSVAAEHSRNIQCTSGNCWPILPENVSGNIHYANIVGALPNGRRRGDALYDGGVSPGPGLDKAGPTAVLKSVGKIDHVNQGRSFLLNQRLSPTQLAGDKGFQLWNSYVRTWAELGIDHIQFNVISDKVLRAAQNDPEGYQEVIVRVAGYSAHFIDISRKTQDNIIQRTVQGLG
T1 sequence (A9J4K2 1-61 partner): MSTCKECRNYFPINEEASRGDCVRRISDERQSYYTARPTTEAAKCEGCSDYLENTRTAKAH
T1 sequence (A9J4K0 1-120 partner): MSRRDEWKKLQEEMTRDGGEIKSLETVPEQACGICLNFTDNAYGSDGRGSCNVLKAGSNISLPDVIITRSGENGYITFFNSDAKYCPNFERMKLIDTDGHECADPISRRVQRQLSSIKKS
T1 sequence (A9J4K6 1-71 partner): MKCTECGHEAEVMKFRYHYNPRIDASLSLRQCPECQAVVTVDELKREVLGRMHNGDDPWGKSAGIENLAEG

| stoichiometry N [2] | Compound | cryo-EM structure of the complex, 2.8 Å [1] |
| --- | --- | --- |
| – | O=C(O)/C=C/C(=O)O [fumarate] | Density was observed for fumarate in a similar location as was observed for the fumarate |
| 2 | (1-methylalkyl)succinate synthase catalytic α-subunit (MASSα), protein product of masD (enzyme) | – |
